Measurements published in publication PMC8775498, “Development of Cobalt-Binding Peptide Chelate from Human Serum Albumin: Cobalt-Binding Properties and Stability” (International Journal of Molecular Sciences, 2022).
Where a SMILES comes first, the peptide text is derived from it.

What was measured:
[1] = in vitro; format: cell-based, rat; conditions: mouse, RAW 264.7 cells
Experimental: (§1) RAW 264.7 and HEK 293T cells were cultured at 37 °C under 5% CO2 in 95% DMEM supplemented with 10% FBS and 1% P/S antibiotics. The RAW 264.7 and HEK 293T cells were harvested in 3 mL of DMEM, and centrifugation was performed at 1200× g using the AllegraTM X-12R centrifuge (BECKMAN COULTER). The cell pellet was resuspended in 1 mL of DMEM. The number of cells was counted using a hemocytometer. The cell viability was measured using MTT assay according to the method of Mirzapour-Kouhdasht, Moosavi-Nasab, with a few modifications. The cells were first plated at a density of a 5 × 10^4 cells/well in a 96-well plate. After overnight incubation, the wAlb12 and wAlb12 + Co(II) each dissolved in buffer were used to treat the cells by concentration, which were then incubated for 24 h at 37 °C. Next, 10 µL of 5 mg mL^−1 MTT stock solution was added to each well, and the plate was incubated for 4 h at 37 °C. Next, the medium was removed and 100 µL of DMSO was added to each well to lyse the cells. The treated cells were incubated at 37 °C for 20 min and their absorbance was measured at a wavelength of 600 nm using an ELISA reader (Autobio, Phomo). The percentage viability was calculated using the following formula:Cell viability (%) = [(As) − (Ab)]/[(Ac) − (Ab)] × 100 where As, Ab, and Ac are the absorbance values of the peptide-treated cells, blank, and control samples, respectively.

[2] = test system: HEK 293T cells; format: cell-based, human
Experimental: as §1

[3] = LC-MS analysis of Co(II) binding (alanine scanning analogs); conditions: 0.5 mM peptide mixed with 0.5 mM CoCl2; judged by change in molecular weight (about 56) and retention time in LC-MS
Experimental: A mutation was performed to identify the binding properties of wAlb12. […] amino acids of wAlb12 were substituted with alanine and the remaining alanine of wAlb12 was substituted with serine (D1A, A2S, H3A, K4A, S5A, E6A, V7A, A8S, H9A, R10A, F11A, and K12A). In addition, the N-terminal region of wAlb12 was acetylated (Ac-wAlb12). The only N-terminal α-amino group of wAlb12 was acetylated under 70% DCM, 25% acetic anhydride, and 5% triethylamine for 2 h after Fmoc cleavage by 20% piperidine. All of the analogs were synthesized by SPPS, and the purity and molecular weight were confirmed using liquid chromatography-mass spectrometry (LC-MS). The high-performance liquid chromatography (HPLC) gradient program was set up with 5% to 35% buffer B for 15 min, and the molecular weights of the prepared analogs were confirmed using MS in the range of 200 to 1800 m/z.
To verify the binding of peptides to Co(II), HPLC and LC-MS were performed to confirm the retention time and molecular weight. RT-HPLC analyses were performed using Shimadzu 10AD system with a Sunfire® column (C18 5 μm 4.6 mm × 250 mm, Waters, Milford, MA, USA) and a flow rate of 1 mL/min with buffer B (100% acetonitrile containing 0.05% TFA) and buffer A (100% H2O containing 0.05% TFA). The eluted components were monitored at an absorbance of 230 nm with a gradient from 5% to 35% of buffer B for 15 min. […]

Binding (adding Co(II)) [3]	Compound	viability at 24 h [1] [%]	toxicity to HEK 293T cells [2]
–	CC(C)[C@H](NC(=O)[C@H](CCC(=O)O)NC(=O)[C@H](CO)NC(=O)[C@H](CCCCN)NC(=O)[C@H](Cc1c[nH]cn1)NC(=O)[C@H](C)NC(=O)[C@@H](N)CC(=O)O)C(=O)N[C@@H](C)C(=O)N[C@@H](Cc1c[nH]cn1)C(=O)N[C@@H](CCCNC(=N)N)C(=O)N[C@@H](Cc1ccccc1)C(=O)N[C@@H](CCCCN)C(N)=O [wAlb12] (H-DAHKSEVAHRFK-NH2)	> 100	non-toxic
not bound and No	Ac-DAHKSEVAHRFK [Ac-wAlb12, wAlb12 with acetylated N-terminal α-amino group]	–	–
